System: M. smegmatis expressing wildtype PknG
Assay type: cell-based, Mycobacterium smegmatis
Settings: 10 μM compound, RAW cells, 24 h postinfection; mutant or vector control cleared up to 85%, wild type pknG only 25%

In the case of NC(=O)c1c(NC(=O)C2CC2)sc2c1CCCC2 [Compound 237, 2-(Cyclopropanecarbonyl-amino)-4,5,6,7-tetrahydro-benzo[b]thiophene-3-carboxylic acid amide], the “clearance of PknG expressing M. smegmatis in macrophages” value is reported as “as efficient as observed with the mutant or vector control transformants”.

Source: patent US20090018149A1, “4,5,6,7-tetrahydrobenzo[b]thiophene derivatives and methods for medical intervention against mycobacterial infections” (priority 2002, published 2009)
